In the kinase profiling compilation of Christmann-Franck et al. (2016):

Each compound was assayed against INSR (human) (UniProt P06213) (assay: radiometric filter-binding kinase assay, Kinase HotSpot). Conditions: compound 0.5 µM; ATP 10 µM.
With `FC(F)(F)c1ccc(/C=C/c2nc(COc3ccc(CCCCn4ccnn4)cc3)co2)cc1` the residual activity was 99.6%. With `COc1cc2c(N3CCN(C(=O)Nc4ccc(OC(C)C)cc4)CC3)ncnc2cc1OCCCN1CCCCC1` the residual activity was 99.3%. For `COc1cc2c(Nc3ccc(Br)cc3F)ncnc2cc1OCC1CCN(C)CC1`, the residual activity was 102%. Work on `O=C(c1ccccc1)c1ccc(N2CCOCC2)cc1O` yielded a residual activity of 92.9%.

What follows are compounds tested against AKT3 (human) (UniProt Q9Y243) in the same assay as above. Conditions: compound 0.5 µM; ATP 10 µM.
Chain of AKT3 (human) (Q9Y243 whole entry, looked up): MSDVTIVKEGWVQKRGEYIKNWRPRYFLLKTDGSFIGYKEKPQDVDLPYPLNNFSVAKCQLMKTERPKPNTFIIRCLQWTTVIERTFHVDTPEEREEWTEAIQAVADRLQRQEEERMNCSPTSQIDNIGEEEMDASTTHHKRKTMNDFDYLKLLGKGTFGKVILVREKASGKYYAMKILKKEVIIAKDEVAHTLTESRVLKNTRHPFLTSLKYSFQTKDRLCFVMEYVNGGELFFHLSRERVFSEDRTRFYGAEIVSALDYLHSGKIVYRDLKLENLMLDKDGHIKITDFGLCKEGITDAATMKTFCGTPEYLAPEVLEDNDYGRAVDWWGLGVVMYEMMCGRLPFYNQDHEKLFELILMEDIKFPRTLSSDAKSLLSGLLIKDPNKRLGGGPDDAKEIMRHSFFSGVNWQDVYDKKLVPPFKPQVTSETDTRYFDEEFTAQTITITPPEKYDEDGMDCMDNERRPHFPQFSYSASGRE
Work on `FC(F)(F)c1ccc(/C=C/c2nc(COc3ccc(CCCCn4ccnn4)cc3)co2)cc1` yielded a residual activity of 96.3%. Compound `COc1cc2c(N3CCN(C(=O)Nc4ccc(OC(C)C)cc4)CC3)ncnc2cc1OCCCN1CCCCC1` has a residual activity of 106%. Work on `COc1cc2c(Nc3ccc(Br)cc3F)ncnc2cc1OCC1CCN(C)CC1` yielded a residual activity of 100%. With `O=C(c1ccccc1)c1ccc(N2CCOCC2)cc1O` the residual activity was 105%.

Each compound was assayed against BLK (human) (UniProt P51451) in the same assay as above. Conditions: compound 0.5 µM; ATP 10 µM.
`FC(F)(F)c1ccc(/C=C/c2nc(COc3ccc(CCCCn4ccnn4)cc3)co2)cc1` was tested, and the residual activity was 102%. Work on `COc1cc2c(N3CCN(C(=O)Nc4ccc(OC(C)C)cc4)CC3)ncnc2cc1OCCCN1CCCCC1` yielded a residual activity of 100%. `COc1cc2c(Nc3ccc(Br)cc3F)ncnc2cc1OCC1CCN(C)CC1` gave a residual activity of 33.8%. For `O=C(c1ccccc1)c1ccc(N2CCOCC2)cc1O`, the residual activity was 102%.

The compounds below were run against EPHA5 (human) (UniProt P54756) in the same assay as above. Conditions: compound 0.5 µM; ATP 10 µM.
With `FC(F)(F)c1ccc(/C=C/c2nc(COc3ccc(CCCCn4ccnn4)cc3)co2)cc1` the residual activity was 99.9%. `COc1cc2c(N3CCN(C(=O)Nc4ccc(OC(C)C)cc4)CC3)ncnc2cc1OCCCN1CCCCC1` was tested, and the residual activity was 104%. For `COc1cc2c(Nc3ccc(Br)cc3F)ncnc2cc1OCC1CCN(C)CC1`, the residual activity was 54.4%. In the case of `O=C(c1ccccc1)c1ccc(N2CCOCC2)cc1O`, the residual activity is reported as 112%.

Each compound was assayed against PIM2 (human) (UniProt Q9P1W9) in the same assay as above. Conditions: compound 0.5 µM; ATP 10 µM.
Chain of PIM2 (human) (Q9P1W9 whole entry, looked up): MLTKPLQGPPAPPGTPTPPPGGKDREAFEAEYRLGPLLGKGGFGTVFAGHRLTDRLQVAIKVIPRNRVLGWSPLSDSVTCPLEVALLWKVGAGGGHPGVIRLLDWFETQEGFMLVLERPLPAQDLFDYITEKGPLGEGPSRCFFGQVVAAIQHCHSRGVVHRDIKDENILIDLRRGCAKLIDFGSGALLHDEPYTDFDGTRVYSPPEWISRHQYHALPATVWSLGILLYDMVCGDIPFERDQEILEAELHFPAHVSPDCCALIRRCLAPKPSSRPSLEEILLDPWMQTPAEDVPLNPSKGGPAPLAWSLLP
For `FC(F)(F)c1ccc(/C=C/c2nc(COc3ccc(CCCCn4ccnn4)cc3)co2)cc1`, the residual activity was 116%. `COc1cc2c(N3CCN(C(=O)Nc4ccc(OC(C)C)cc4)CC3)ncnc2cc1OCCCN1CCCCC1` was tested, and the residual activity was 113%. In the case of `COc1cc2c(Nc3ccc(Br)cc3F)ncnc2cc1OCC1CCN(C)CC1`, the residual activity is reported as 99.4%. `O=C(c1ccccc1)c1ccc(N2CCOCC2)cc1O` showed a residual activity of 105%.

What follows are compounds tested against PRKCG (human) (UniProt P05129) in the same assay as above. Conditions: compound 0.5 µM; ATP 10 µM.
`FC(F)(F)c1ccc(/C=C/c2nc(COc3ccc(CCCCn4ccnn4)cc3)co2)cc1` showed a residual activity of 95.2%. With `COc1cc2c(N3CCN(C(=O)Nc4ccc(OC(C)C)cc4)CC3)ncnc2cc1OCCCN1CCCCC1` the residual activity was 90.9%. With `COc1cc2c(Nc3ccc(Br)cc3F)ncnc2cc1OCC1CCN(C)CC1` the residual activity was 93.2%. `O=C(c1ccccc1)c1ccc(N2CCOCC2)cc1O` gave a residual activity of 95.6%.

These compounds were tested against CDK4 CCND3 (human) (UniProt P30281+P11802) in the same assay as above. Conditions: compound 0.5 µM; ATP 10 µM.
`FC(F)(F)c1ccc(/C=C/c2nc(COc3ccc(CCCCn4ccnn4)cc3)co2)cc1` was tested, and the residual activity was 119%. `COc1cc2c(N3CCN(C(=O)Nc4ccc(OC(C)C)cc4)CC3)ncnc2cc1OCCCN1CCCCC1` gave a residual activity of 104%. `COc1cc2c(Nc3ccc(Br)cc3F)ncnc2cc1OCC1CCN(C)CC1` was tested, and the residual activity was 101%. `O=C(c1ccccc1)c1ccc(N2CCOCC2)cc1O` was tested, and the residual activity was 96.2%.

Each compound was assayed against MAPK11 (human) (UniProt Q15759) in the same assay as above. Conditions: compound 0.5 µM; ATP 10 µM.
`FC(F)(F)c1ccc(/C=C/c2nc(COc3ccc(CCCCn4ccnn4)cc3)co2)cc1` gave a residual activity of 102%. For `COc1cc2c(N3CCN(C(=O)Nc4ccc(OC(C)C)cc4)CC3)ncnc2cc1OCCCN1CCCCC1`, the residual activity was 105%. `COc1cc2c(Nc3ccc(Br)cc3F)ncnc2cc1OCC1CCN(C)CC1` was tested, and the residual activity was 97.1%. `O=C(c1ccccc1)c1ccc(N2CCOCC2)cc1O` showed a residual activity of 99.3%.

What follows are compounds tested against STK16 (human) (UniProt O75716) in the same assay as above. Conditions: compound 0.5 µM; ATP 10 µM.
Chain of STK16 (human) (O75716 whole entry, looked up): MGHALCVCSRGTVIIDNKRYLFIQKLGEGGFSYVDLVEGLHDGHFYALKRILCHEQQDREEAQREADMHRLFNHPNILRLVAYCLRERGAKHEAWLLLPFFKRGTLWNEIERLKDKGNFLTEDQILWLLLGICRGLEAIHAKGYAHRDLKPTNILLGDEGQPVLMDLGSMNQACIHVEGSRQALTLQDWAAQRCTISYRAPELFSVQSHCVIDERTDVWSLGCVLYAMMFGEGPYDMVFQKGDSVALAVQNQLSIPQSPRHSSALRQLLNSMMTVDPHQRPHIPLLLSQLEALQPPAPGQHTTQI
For `FC(F)(F)c1ccc(/C=C/c2nc(COc3ccc(CCCCn4ccnn4)cc3)co2)cc1`, the residual activity was 104%. `COc1cc2c(N3CCN(C(=O)Nc4ccc(OC(C)C)cc4)CC3)ncnc2cc1OCCCN1CCCCC1` was tested, and the residual activity was 103%. For `COc1cc2c(Nc3ccc(Br)cc3F)ncnc2cc1OCC1CCN(C)CC1`, the residual activity was 101%. `O=C(c1ccccc1)c1ccc(N2CCOCC2)cc1O` gave a residual activity of 104%.

Each compound was assayed against CSNK1G3 (human) (UniProt Q9Y6M4) in the same assay as above. Conditions: compound 0.5 µM; ATP 10 µM.
Chain of CSNK1G3 (human) (Q9Y6M4 whole entry, looked up): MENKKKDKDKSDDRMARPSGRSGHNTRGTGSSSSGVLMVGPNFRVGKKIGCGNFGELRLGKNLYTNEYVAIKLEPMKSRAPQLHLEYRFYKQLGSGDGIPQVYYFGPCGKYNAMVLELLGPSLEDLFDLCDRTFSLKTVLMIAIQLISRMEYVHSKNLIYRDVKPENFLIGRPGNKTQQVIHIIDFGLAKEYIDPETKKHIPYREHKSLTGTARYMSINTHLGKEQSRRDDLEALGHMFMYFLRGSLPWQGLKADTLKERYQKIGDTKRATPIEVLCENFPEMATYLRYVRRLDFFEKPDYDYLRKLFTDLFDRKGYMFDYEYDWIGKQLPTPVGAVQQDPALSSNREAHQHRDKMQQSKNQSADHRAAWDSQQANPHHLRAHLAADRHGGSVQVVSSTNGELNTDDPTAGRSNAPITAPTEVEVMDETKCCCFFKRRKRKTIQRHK
`FC(F)(F)c1ccc(/C=C/c2nc(COc3ccc(CCCCn4ccnn4)cc3)co2)cc1` was tested, and the residual activity was 96.7%. `COc1cc2c(N3CCN(C(=O)Nc4ccc(OC(C)C)cc4)CC3)ncnc2cc1OCCCN1CCCCC1` was tested, and the residual activity was 95%. In the case of `COc1cc2c(Nc3ccc(Br)cc3F)ncnc2cc1OCC1CCN(C)CC1`, the residual activity is reported as 98.1%. Compound `O=C(c1ccccc1)c1ccc(N2CCOCC2)cc1O` has a residual activity of 98.8%.

What follows are compounds tested against NTRK1 (human) (UniProt P04629) in the same assay as above. Conditions: compound 0.5 µM; ATP 10 µM.
In the case of `FC(F)(F)c1ccc(/C=C/c2nc(COc3ccc(CCCCn4ccnn4)cc3)co2)cc1`, the residual activity is reported as 103%. `COc1cc2c(N3CCN(C(=O)Nc4ccc(OC(C)C)cc4)CC3)ncnc2cc1OCCCN1CCCCC1` was tested, and the residual activity was 48.1%. `COc1cc2c(Nc3ccc(Br)cc3F)ncnc2cc1OCC1CCN(C)CC1` showed a residual activity of 104%. Work on `O=C(c1ccccc1)c1ccc(N2CCOCC2)cc1O` yielded a residual activity of 99%.

Each compound was assayed against CSNK2A2 (human) (UniProt P19784) in the same assay as above. Conditions: compound 0.5 µM; ATP 10 µM.
`FC(F)(F)c1ccc(/C=C/c2nc(COc3ccc(CCCCn4ccnn4)cc3)co2)cc1` was tested, and the residual activity was 102%. `COc1cc2c(N3CCN(C(=O)Nc4ccc(OC(C)C)cc4)CC3)ncnc2cc1OCCCN1CCCCC1` showed a residual activity of 92.9%. `COc1cc2c(Nc3ccc(Br)cc3F)ncnc2cc1OCC1CCN(C)CC1` showed a residual activity of 96.5%. `O=C(c1ccccc1)c1ccc(N2CCOCC2)cc1O` showed a residual activity of 96.8%.

The compounds below were run against EPHA8 (human) (UniProt P29322) in the same assay as above. Conditions: compound 0.5 µM; ATP 10 µM.
Chain of EPHA8 (human) (P29322 whole entry, looked up): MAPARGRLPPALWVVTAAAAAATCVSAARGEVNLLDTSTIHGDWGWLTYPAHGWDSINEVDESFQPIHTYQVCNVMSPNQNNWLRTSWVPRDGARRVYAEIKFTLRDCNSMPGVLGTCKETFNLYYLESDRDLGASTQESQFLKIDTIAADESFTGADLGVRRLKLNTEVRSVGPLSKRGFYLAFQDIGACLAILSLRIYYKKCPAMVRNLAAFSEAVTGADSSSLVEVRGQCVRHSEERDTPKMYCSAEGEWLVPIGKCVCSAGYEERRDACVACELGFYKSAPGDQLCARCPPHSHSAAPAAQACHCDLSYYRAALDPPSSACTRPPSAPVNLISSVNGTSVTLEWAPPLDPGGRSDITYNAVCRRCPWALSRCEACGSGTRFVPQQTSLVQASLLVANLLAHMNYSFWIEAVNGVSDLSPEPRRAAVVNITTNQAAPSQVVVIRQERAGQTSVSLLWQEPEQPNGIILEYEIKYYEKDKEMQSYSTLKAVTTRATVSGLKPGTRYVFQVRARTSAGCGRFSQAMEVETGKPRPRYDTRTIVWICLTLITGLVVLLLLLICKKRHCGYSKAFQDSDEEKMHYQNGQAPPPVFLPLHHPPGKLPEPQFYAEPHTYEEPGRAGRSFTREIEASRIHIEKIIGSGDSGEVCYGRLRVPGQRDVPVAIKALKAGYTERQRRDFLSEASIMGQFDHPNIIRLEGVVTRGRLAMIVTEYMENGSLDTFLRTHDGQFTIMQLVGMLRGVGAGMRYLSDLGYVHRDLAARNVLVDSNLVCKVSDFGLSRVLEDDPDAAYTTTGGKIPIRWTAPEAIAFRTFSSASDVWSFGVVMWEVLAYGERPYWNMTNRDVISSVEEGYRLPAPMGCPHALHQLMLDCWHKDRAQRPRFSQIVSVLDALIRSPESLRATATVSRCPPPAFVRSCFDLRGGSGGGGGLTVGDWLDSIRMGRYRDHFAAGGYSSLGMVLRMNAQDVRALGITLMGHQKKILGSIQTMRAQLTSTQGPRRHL
`FC(F)(F)c1ccc(/C=C/c2nc(COc3ccc(CCCCn4ccnn4)cc3)co2)cc1` showed a residual activity of 104%. With `COc1cc2c(N3CCN(C(=O)Nc4ccc(OC(C)C)cc4)CC3)ncnc2cc1OCCCN1CCCCC1` the residual activity was 96.6%. In the case of `COc1cc2c(Nc3ccc(Br)cc3F)ncnc2cc1OCC1CCN(C)CC1`, the residual activity is reported as 33.9%.

These compounds were tested against MARK4 (human) (UniProt Q96L34) in the same assay as above. Conditions: compound 0.5 µM; ATP 10 µM.
Chain of MARK4 (human) (Q96L34 whole entry, looked up): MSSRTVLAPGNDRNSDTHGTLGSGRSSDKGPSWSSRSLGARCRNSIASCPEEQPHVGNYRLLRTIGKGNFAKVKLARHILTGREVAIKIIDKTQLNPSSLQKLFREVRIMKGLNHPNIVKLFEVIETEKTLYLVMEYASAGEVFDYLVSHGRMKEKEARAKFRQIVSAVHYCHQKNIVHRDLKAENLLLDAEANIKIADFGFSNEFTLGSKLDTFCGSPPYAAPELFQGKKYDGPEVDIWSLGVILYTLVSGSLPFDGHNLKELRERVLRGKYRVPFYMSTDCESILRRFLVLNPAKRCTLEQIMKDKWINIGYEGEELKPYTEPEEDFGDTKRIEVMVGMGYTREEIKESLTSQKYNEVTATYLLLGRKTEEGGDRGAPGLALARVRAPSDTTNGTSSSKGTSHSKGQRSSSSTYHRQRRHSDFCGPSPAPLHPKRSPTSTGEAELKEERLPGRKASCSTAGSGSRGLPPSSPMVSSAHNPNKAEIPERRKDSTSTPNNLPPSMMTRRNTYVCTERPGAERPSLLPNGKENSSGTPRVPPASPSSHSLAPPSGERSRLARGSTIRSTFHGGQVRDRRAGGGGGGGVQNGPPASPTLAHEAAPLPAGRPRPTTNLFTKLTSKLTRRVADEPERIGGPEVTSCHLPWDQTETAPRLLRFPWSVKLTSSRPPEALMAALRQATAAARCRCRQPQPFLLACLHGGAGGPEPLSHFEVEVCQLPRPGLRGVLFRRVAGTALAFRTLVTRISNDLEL
Work on `FC(F)(F)c1ccc(/C=C/c2nc(COc3ccc(CCCCn4ccnn4)cc3)co2)cc1` yielded a residual activity of 97.9%. Work on `COc1cc2c(N3CCN(C(=O)Nc4ccc(OC(C)C)cc4)CC3)ncnc2cc1OCCCN1CCCCC1` yielded a residual activity of 98.7%. `COc1cc2c(Nc3ccc(Br)cc3F)ncnc2cc1OCC1CCN(C)CC1` was tested, and the residual activity was 99.4%. For `O=C(c1ccccc1)c1ccc(N2CCOCC2)cc1O`, the residual activity was 100%.

The compounds below were run against CAMK1D (human) (UniProt Q8IU85) in the same assay as above. Conditions: compound 0.5 µM; ATP 10 µM.
Chain of CAMK1D (human) (Q8IU85 whole entry, looked up): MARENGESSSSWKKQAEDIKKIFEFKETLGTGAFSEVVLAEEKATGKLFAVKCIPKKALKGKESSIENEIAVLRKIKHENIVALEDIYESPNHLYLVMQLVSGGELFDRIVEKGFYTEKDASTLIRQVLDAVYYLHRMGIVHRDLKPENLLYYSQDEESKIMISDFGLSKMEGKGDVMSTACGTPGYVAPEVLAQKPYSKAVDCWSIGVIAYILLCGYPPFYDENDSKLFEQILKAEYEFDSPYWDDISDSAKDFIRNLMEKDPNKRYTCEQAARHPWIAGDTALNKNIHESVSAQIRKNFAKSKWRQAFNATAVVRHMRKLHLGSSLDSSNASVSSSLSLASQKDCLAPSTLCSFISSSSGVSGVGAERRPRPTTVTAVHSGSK
`FC(F)(F)c1ccc(/C=C/c2nc(COc3ccc(CCCCn4ccnn4)cc3)co2)cc1` was tested, and the residual activity was 109%. `COc1cc2c(N3CCN(C(=O)Nc4ccc(OC(C)C)cc4)CC3)ncnc2cc1OCCCN1CCCCC1` gave a residual activity of 110%. Work on `COc1cc2c(Nc3ccc(Br)cc3F)ncnc2cc1OCC1CCN(C)CC1` yielded a residual activity of 90.6%. `O=C(c1ccccc1)c1ccc(N2CCOCC2)cc1O` was tested, and the residual activity was 99.1%.

The compounds below were run against STK11 (human) (UniProt Q15831) in the same assay as above. Conditions: compound 0.5 µM; ATP 10 µM.
Chain of STK11 (human) (Q15831 whole entry, looked up): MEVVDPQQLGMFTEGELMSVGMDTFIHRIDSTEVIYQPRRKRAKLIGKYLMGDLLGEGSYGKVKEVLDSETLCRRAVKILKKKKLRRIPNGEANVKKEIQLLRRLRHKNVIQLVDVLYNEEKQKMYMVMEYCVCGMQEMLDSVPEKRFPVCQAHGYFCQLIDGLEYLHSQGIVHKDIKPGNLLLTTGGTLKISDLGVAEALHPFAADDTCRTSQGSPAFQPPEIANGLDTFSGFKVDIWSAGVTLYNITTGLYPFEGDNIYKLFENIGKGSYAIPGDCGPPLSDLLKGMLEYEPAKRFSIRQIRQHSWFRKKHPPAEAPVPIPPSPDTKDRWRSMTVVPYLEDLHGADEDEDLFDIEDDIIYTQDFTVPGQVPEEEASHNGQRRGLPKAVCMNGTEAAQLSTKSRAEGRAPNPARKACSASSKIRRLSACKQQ
`FC(F)(F)c1ccc(/C=C/c2nc(COc3ccc(CCCCn4ccnn4)cc3)co2)cc1` gave a residual activity of 104%. `COc1cc2c(N3CCN(C(=O)Nc4ccc(OC(C)C)cc4)CC3)ncnc2cc1OCCCN1CCCCC1` showed a residual activity of 104%. Work on `COc1cc2c(Nc3ccc(Br)cc3F)ncnc2cc1OCC1CCN(C)CC1` yielded a residual activity of 105%. With `O=C(c1ccccc1)c1ccc(N2CCOCC2)cc1O` the residual activity was 104%.

Each compound was assayed against RPS6KA6 KD1 KD2 (human) (UniProt Q9UK32) in the same assay as above. Conditions: compound 0.5 µM; ATP 10 µM.
With `FC(F)(F)c1ccc(/C=C/c2nc(COc3ccc(CCCCn4ccnn4)cc3)co2)cc1` the residual activity was 100%. For `COc1cc2c(N3CCN(C(=O)Nc4ccc(OC(C)C)cc4)CC3)ncnc2cc1OCCCN1CCCCC1`, the residual activity was 106%. `COc1cc2c(Nc3ccc(Br)cc3F)ncnc2cc1OCC1CCN(C)CC1` gave a residual activity of 99.3%. Work on `O=C(c1ccccc1)c1ccc(N2CCOCC2)cc1O` yielded a residual activity of 101%.

These compounds were tested against WEE1 (human) (UniProt P30291) in the same assay as above. Conditions: compound 0.5 µM; ATP 10 µM.
Chain of WEE1 (human) (P30291 whole entry, looked up): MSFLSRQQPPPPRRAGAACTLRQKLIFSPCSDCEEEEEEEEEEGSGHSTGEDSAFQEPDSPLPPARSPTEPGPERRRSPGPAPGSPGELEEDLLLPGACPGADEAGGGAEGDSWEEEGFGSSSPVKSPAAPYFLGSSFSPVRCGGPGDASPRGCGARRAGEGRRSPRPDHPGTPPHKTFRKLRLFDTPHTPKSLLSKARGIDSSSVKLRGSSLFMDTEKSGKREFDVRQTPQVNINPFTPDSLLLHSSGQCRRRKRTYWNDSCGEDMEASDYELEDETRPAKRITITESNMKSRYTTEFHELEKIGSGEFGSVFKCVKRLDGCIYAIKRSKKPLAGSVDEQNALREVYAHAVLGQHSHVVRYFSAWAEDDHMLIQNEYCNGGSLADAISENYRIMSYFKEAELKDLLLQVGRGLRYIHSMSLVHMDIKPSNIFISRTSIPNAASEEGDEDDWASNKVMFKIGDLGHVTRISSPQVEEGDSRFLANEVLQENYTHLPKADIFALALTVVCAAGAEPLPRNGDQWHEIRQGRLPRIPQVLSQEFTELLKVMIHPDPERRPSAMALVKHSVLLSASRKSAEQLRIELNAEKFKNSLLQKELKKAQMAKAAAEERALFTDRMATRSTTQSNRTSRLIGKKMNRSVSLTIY
For `FC(F)(F)c1ccc(/C=C/c2nc(COc3ccc(CCCCn4ccnn4)cc3)co2)cc1`, the residual activity was 101%. For `COc1cc2c(N3CCN(C(=O)Nc4ccc(OC(C)C)cc4)CC3)ncnc2cc1OCCCN1CCCCC1`, the residual activity was 97.5%. `COc1cc2c(Nc3ccc(Br)cc3F)ncnc2cc1OCC1CCN(C)CC1` was tested, and the residual activity was 95.1%. With `O=C(c1ccccc1)c1ccc(N2CCOCC2)cc1O` the residual activity was 94.2%.

These compounds were tested against CDK2 CCNE1 (human) (UniProt P24941+P24864) in the same assay as above. Conditions: compound 0.5 µM; ATP 10 µM.
Compound `FC(F)(F)c1ccc(/C=C/c2nc(COc3ccc(CCCCn4ccnn4)cc3)co2)cc1` has a residual activity of 96.3%. `COc1cc2c(N3CCN(C(=O)Nc4ccc(OC(C)C)cc4)CC3)ncnc2cc1OCCCN1CCCCC1` showed a residual activity of 96.7%. For `COc1cc2c(Nc3ccc(Br)cc3F)ncnc2cc1OCC1CCN(C)CC1`, the residual activity was 101%. `O=C(c1ccccc1)c1ccc(N2CCOCC2)cc1O` showed a residual activity of 99.6%.

The compounds below were run against ABL2 (human) (UniProt P42684) in the same assay as above. Conditions: compound 0.5 µM; ATP 10 µM.
Compound `COc1cc2c(Nc3ccc(Br)cc3F)ncnc2cc1OCC1CCN(C)CC1` has a residual activity of 14%. Work on `O=C(c1ccccc1)c1ccc(N2CCOCC2)cc1O` yielded a residual activity of 105%.

What follows are compounds tested against WNK3 (human) (UniProt Q9BYP7) in the same assay as above. Conditions: compound 0.5 µM; ATP 10 µM.
`FC(F)(F)c1ccc(/C=C/c2nc(COc3ccc(CCCCn4ccnn4)cc3)co2)cc1` was tested, and the residual activity was 98.5%. Compound `COc1cc2c(N3CCN(C(=O)Nc4ccc(OC(C)C)cc4)CC3)ncnc2cc1OCCCN1CCCCC1` has a residual activity of 102%. `COc1cc2c(Nc3ccc(Br)cc3F)ncnc2cc1OCC1CCN(C)CC1` was tested, and the residual activity was 98%. With `O=C(c1ccccc1)c1ccc(N2CCOCC2)cc1O` the residual activity was 104%.

These compounds were tested against DAPK3 (human) (UniProt O43293) in the same assay as above. Conditions: compound 0.5 µM; ATP 10 µM.
`FC(F)(F)c1ccc(/C=C/c2nc(COc3ccc(CCCCn4ccnn4)cc3)co2)cc1` gave a residual activity of 105%.
